Measured values as given in paper PMC2922946 (Bioorganic & medicinal chemistry, 2010).
Where a SMILES comes first, the peptide text is derived from it. The star is where a group is joined. Boc = CC(C)(C)OC(=O)*

Legend:
Hdm2–p53 complex = Hdm2–p53 complex (Homo sapiens, UniProt Q00987); experiment: Competitive ELISA, Hdm2–p53 inhibition; type: biochemical; details: for % Inhibition at 560 μM: ELISA, Hdm2 (1.5 μM), peptide 560 μM
Hdmx–p53 complex = target: T1, Hdmx–p53 complex (Homo sapiens, UniProt O15151); experiment: Competitive ELISA, Hdmx–p53 inhibition; type: biochemical; details: for activity against the Hdmx–p53 complex (in words) / % inhibition at 320 μM: ELISA; for % inhibition at 320 μM: Hdmx (200 nM), peptide 320 μM
T1 sequence (O15151 1-189): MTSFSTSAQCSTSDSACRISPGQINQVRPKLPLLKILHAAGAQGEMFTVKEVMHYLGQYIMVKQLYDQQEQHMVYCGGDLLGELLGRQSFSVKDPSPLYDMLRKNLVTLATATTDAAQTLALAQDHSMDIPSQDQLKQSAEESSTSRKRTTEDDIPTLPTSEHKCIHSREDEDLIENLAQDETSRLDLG

Sequence of Hdm2–p53 complex (Q00987 1-188, one chain of several): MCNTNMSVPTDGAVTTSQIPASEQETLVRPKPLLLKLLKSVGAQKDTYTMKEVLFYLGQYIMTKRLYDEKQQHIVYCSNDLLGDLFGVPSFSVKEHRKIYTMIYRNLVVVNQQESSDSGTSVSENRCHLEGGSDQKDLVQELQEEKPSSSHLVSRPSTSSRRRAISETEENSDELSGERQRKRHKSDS

## CC[C@H](C)[C@@H]1NC(=O)[C@H](C)NC(=O)[C@H](C(C)C)NC(=O)[C@H](Cc2ccc(O)cc2)NC(=O)[C@H](Cc2ccc(O)cc2)NC(=O)[C@H](Cc2ccccc2)NC1=O [Compound 3, c-(AIFYYV)] (cyclo(AIFYYV))
Hdm2–p53 complex; Hdm2–p53 ELISA, versus control ETFSDLWKLL
  level of activity lower than that of the decapeptide control: approximately 13 fold
Hdmx–p53 complex; wide range of concentrations (up to 1 mM)
  antagonism of the Hdmx–p53 complex: did not antagonize

## CC(C)C[C@@H]1NC(=O)[C@H](CC(=O)O)NC(=O)[C@H](C)NC(=O)[C@H](Cc2ccccc2)NC(=O)[C@H](Cc2c[nH]c3ccccc23)NC(=O)[C@H](CCCNC(=N)N)NC1=O [Compound 8, c-(ADLRWF)] (cyclo(ADLRWF))
Hdmx–p53 complex; read-out: % inhibition at 320 μM
  inhibition at 320 µM: 12 ± 1%

## CC(C)CNC(=O)[C@H](Cc1ccccc1)NC(=O)[C@H](Cc1c[nH]c2ccccc12)NC(=O)[C@H](CCCNC(=N)N)NC(=O)OCc1ccccc1 [Compound 12F]
Hdm2–p53 complex; concentration not given
  activity against Hdm2–p53 complex: no activity

## Boc–WF–N(CH2)5 [Compound 4b]
Hdmx–p53 complex
  activity against the Hdmx–p53 complex (in words): measurable inhibition
  % inhibition at 320 μM: 13 ± 1%

## Boc-DLRWF-NH2 [Compound 7a]
Hdmx–p53 complex
  % inhibition at 320 μM: No Inhibition

## Boc–IFYYV–N(CH2)5 [Compound 2b]
Hdm2–p53 complex
  % Inhibition at 560 μM: 16 ± 1%

## Boc–FYYV–N(CH2)5 [Compound 2a]
Hdm2–p53 complex
  % Inhibition at 560 μM: No Inhibition
Hdm2–p53 complex; at concentrations of up to 560 μM
  activity toward Hdm2–p53 complex: no activity

## Boc–DLRWF–N(CH2)5 [Compound 7b]
Hdmx–p53 complex
  activity against the Hdmx–p53 complex (in words): dramatic reduction of activity
  % inhibition at 320 μM: 13 ± 1%

## CC(C)(C)OC(=O)N[C@@H](CCCNC(=N)N)C(=O)N[C@@H](Cc1c[nH]c2ccccc12)C(=O)N[C@@H](Cc1ccccc1)C(N)=O [Compound 5a, Boc–RWF–NH2] (Boc-Arg-Trp-Phe-NH2)
Hdmx–p53 complex
  % inhibition at 320 μM: No Inhibition
